From patent publication US8574563B2 (Bristol-Myers Squibb Company, priority 2006, dated 2013)

The molecules below were run on HCV 1b-377-neo replicon cells (assay: HCV replicon assay, HCV 1b-377-neo replicon cells (1b FRET)). Settings: Hepatitis C virus, HCV 1b-377-neo replicon cells; HCV 1b genotype; read-out: EC50 range against HCV 1b (Table 2, Range).
Assay type: cell-based, Hepatitis C virus genotype 1b
How it was run: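 FRET-based replicon assay in HCV 1b-377-neo cells, including a comparison line carrying the NS5A Y2065H mutation that confers resistance to a reference compound.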

Structure (SMILES)	EC50
COC(=O)N[C@@H](C(=O)N1CCC[C@H]1c1ncc(-c2ccc(-c3ccc(-c4cnc([C@@H]5CCCN5C(=O)CCN5CCCCC5)[nH]4)cc3)cc2)[nH]1)c1ccccc1 [Example 84-24, methyl ((1R)-2-oxo-1-phenyl-2-((2S)-2-(5-(4′-(2-((2S)-1-(3-(1-piperidinyl)propanoyl)-2-pyrrolidinyl)-1H-imidazol-5-yl)-4-biphenylyl)-1H-imidazol-2-yl)-1-pyrrolidinyl)ethyl)carbamate]	0.001 to 0.999 nM
COC(=O)N[C@H](C(=O)N1CCC[C@H]1c1ncc(-c2ccc(-c3ccc(-c4cnc([C@H]5CCCN5C(=O)[C@H](NC(=O)OC)C(C)C)[nH]4)cc3)cc2)[nH]1)C(C)C [Example M90, methyl ((1S)-1-(((2S)-2-(5-(4′-(2-((2R)-1-((2R)-2-((methoxycarbonyl)amino)-3-methylbutanoyl)-2-pyrrolidinyl)-1H-imidazol-5-yl)-4-biphenylyl)-1H-imidazol-2-yl)-1-pyrrolidinyl)carbonyl)-2-methylpropyl)carbamate]	1000 to 10000 nM
C[C@@H](c1ncc(-c2ccc(-c3ccc(-c4cnc([C@@H]5CCCN5C(=O)[C@@H](c5ccccc5)N5CCCCC5)[nH]4)cc3)cc2)[nH]1)N(C)C(=O)[C@@H](c1ccccc1)N1CCCCC1 [Example 24-18-6, (2R)-N-methyl-2-phenyl-N-((1S)-1-(5-(4′-(2-((2S)-1-((2R)-2-phenyl-2-(1-piperidinyl)acetyl)-2-pyrrolidinyl)-1H-imidazol-5-yl)-4-biphenylyl)-1H-imidazol-2-yl)ethyl)-2-(1-piperidinyl)acetamide]	0.001 to 0.999 nM
CC(=O)N1[C@@H](C)CC[C@H]1c1ncc(-c2ccc(-c3ccc(-c4cnc([C@@H]5CC[C@H](C)N5C(C)=O)[nH]4)cc3)cc2)[nH]1 (stereo in doubt) [Example M162, 2-((2S,5S)-1-acetyl-5-methyl-2-pyrrolidinyl)-4-(4′-(2-((2S,5S)-1-acetyl-5-methyl-2-pyrrolidinyl)-1H-imidazol-5-yl)-4-biphenylyl)-1H-imidazole]	1 to 99 nM
CC(C)C(C(=O)N1CCC[C@H]1c1ncc(-c2ccc(-c3ccc(-c4cnc([C@@H]5CCCN5C(=O)C(C(C)C)N(C)Cc5ccccc5)[nH]4)cc3)cc2)[nH]1)N(C)Cc1ccccc1 (stereo partly drawn) [Example 24-4g, 1,1′-(4,4′-biphenyldiylbis(1H-imidazole-5,2-diyl(2S)-2,1-pyrrolidinediyl))bis(N-benzyl-N,3-dimethyl-1-oxo-2-butanamine)]	1000 to 10000 nM
CN(C)[C@@H](C(=O)N1CCC[C@H]1c1ncc(-c2ccc(-c3ccc(-c4cnc([C@@H]5CCCN5C(=O)C5(C)CCN(C(=O)OC(C)(C)C)CC5)[nH]4)cc3)cc2)[nH]1)c1ccccc1 [Example 94-12, tert-butyl 4-(((2S)-2-(5-(4′-(2-((2S)-1-((2R)-2-(dimethylamino)-2-phenylacetyl)-2-pyrrolidinyl)-1H-imidazol-5-yl)-4-biphenylyl)-1H-imidazol-2-yl)-1-pyrrolidinyl)carbonyl)-4-methyl-1-piperidinecarboxylate]	1 to 99 nM
COC(=O)N[C@@H](C)C(=O)N1CCC[C@H]1c1ncc(-c2ccc(-c3ccc(-c4cnc([C@@H]5CCCN5C(=O)[C@H](Cc5ccccn5)NC(=O)OC)[nH]4)cc3)cc2)[nH]1 [cj-66, methyl ((1S)-2-((2S)-2-(5-(4′-(2-((2S)-1-(N-(methoxycarbonyl)-L-alanyl)-2-pyrrolidinyl)-1H-imidazol-5-yl)-4-biphenylyl)-1H-imidazol-2-yl)-1-pyrrolidinyl)-2-oxo-1-(2-pyridinylmethyl)ethyl)carbamate]	0.001 to 0.999 nM
CN(C)[C@@H](C(=O)N1CCC[C@H]1c1ncc(-c2ccc(-c3ccc(-c4cnc([C@@H]5CCCN5C(=O)[C@@H](c5ccccc5)N5CCCCC5)[nH]4)cc3)cc2)[nH]1)c1ccccc1Cl [Example 28-4, (1R)-1-(2-chlorophenyl)-N,N-dimethyl-2-oxo-2-((2S)-2-(5-(4′-(2-((2S)-1-((2R)-2-phenyl-2-(1-piperidinyl)acetyl)-2-pyrrolidinyl)-1H-imidazol-5-yl)-4-biphenylyl)-1H-imidazol-2-yl)-1-pyrrolidinyl)ethanamine]	0.001 to 0.999 nM
COC(=O)N[C@@H](C(=O)N1CCC[C@H]1c1ncc(-c2ccc(-c3ccc(-c4cnc([C@@H]5CCCN5C(=O)C(c5cccc(F)c5)N(C)C)[nH]4)cc3)cc2)[nH]1)c1ccccc1 (stereo partly drawn) [Example 84-60, methyl ((1R)-2-((2S)-2-(5-(4′-(2-((2S)-1-((dimethylamino)(3-fluorophenyl)acetyl)-2-pyrrolidinyl)-1H-imidazol-5-yl)-4-biphenylyl)-1H-imidazol-2-yl)-1-pyrrolidinyl)-2-oxo-1-phenylethyl)carbamate]	0.001 to 0.999 nM
COC(=O)N[C@@H](C(=O)N1CCC[C@H]1c1ncc(-c2ccc(-c3ccc(-c4cnc([C@@H]5CCCN5C(=O)C5CCN(C)CC5)[nH]4)cc3)cc2)[nH]1)c1ccccc1 [Example 44, methyl ((1R)-2-((2S)-2-(5-(4′-(2-((2S)-1-((1-methyl-4-piperidinyl)carbonyl)-2-pyrrolidinyl)-1H-imidazol-5-yl)-4-biphenylyl)-1H-imidazol-2-yl)-1-pyrrolidinyl)-2-oxo-1-phenylethyl)carbamate]	0.001 to 0.999 nM
O=C([C@@H]1CCCO1)N1CCC[C@H]1c1ncc(-c2ccc(-c3ccc(-c4cnc([C@@H]5CCCN5C(=O)[C@@H](c5ccccc5)N5CCCC5)[nH]4)cc3)cc2)[nH]1 [Example 95, 2-((2S)-1-((2R)-2-phenyl-2-(1-pyrrolidinyl)acetyl)-2-pyrrolidinyl)-5-(4′-(2-((2S)-1-((2S)-tetrahydro-2-furanylcarbonyl)-2-pyrrolidinyl)-1H-imidazol-5-yl)-4-biphenylyl)-1H-imidazole]	0.001 to 0.999 nM
COC(=O)N[C@@H](C(=O)N1CCC[C@H]1c1ncc(-c2ccc(-c3ncc(-c4cnc([C@@H]5CCCN5C(=O)[C@@H](c5ccccc5)N5CCCCC5)[nH]4)cn3)cc2)[nH]1)c1ccccc1 [Example 152l-3]	0.001 to 0.999 nM
CCN(CC)[C@@H](C(=O)N1CCC[C@H]1c1nc(-c2ccc(-c3ccc(-c4cnc([C@@H]5CCCN5C(=O)[C@@](C)(NC(=O)OC)C(C)C)[nH]4)cc3)cc2)c[nH]1)c1ccccc1 [Example F43, methyl ((1S)-1-(((2S)-2-(5-(4′-(2-((2S)-1-((2R)-2-(diethylamino)-2-phenylacetyl)-2-pyrrolidinyl)-1H-imidazol-4-yl)-4-biphenylyl)-1H-imidazol-2-yl)-1-pyrrolidinyl)carbonyl)-1,2-dimethylpropyl)carbamate]	0.001 to 0.999 nM
COC(=O)N[C@@H](Cc1cn(Cc2ccccc2)cn1)C(=O)N1CCC[C@H]1c1ncc(-c2ccc(-c3ccc(-c4cnc([C@@H]5CCCN5C(=O)[C@@H](NC(=O)OC)[C@@H](C)OC)[nH]4)cc3)cc2)[nH]1 [cj-75, methyl ((1S)-1-((1-benzyl-1H-imidazol-4-yl)methyl)-2-((2S)-2-(5-(4′-(2-((2S)-1-((2S,3R)-3-methoxy-2-((methoxycarbonyl)amino)butanoyl)-2-pyrrolidinyl)-1H-imidazol-5-yl)-4-biphenylyl)-1H-irnidazol-2-yl)-1-pyrrolidinyl)-2-oxoethyl)carbamate]	0.001 to 0.999 nM
CCN(CC)[C@@H](C(=O)N1CCC[C@H]1c1ncc(-c2ccc(-c3ccc(-c4cnc([C@@H]5CCCN5C(=O)[C@H](NC5=NCCN5)C(C)C)[nH]4)cc3)cc2)[nH]1)c1ccccc1 [cj-11p, N-((1R)-1-(((2S)-2-(5-(4′-(2-((2S)-1-((2R)-2-(diethylamino)-2-phenylacetyl)-2-pyrrolidinyl)-1H-imidazol-5-yl)-4-biphenylyl)-1H-imidazol-2-yl)-1-pyrrolidinyl)carbonyl)-2-methylpropyl)-4,5-dihydro-1H-imidazol-2-amine]	0.001 to 0.999 nM
COC(=O)N[C@@H]1CCCC[C@@H]1C(=O)N1CCC[C@H]1c1ncc(-c2ccc(-c3ccc(-c4cnc([C@@H]5CCCN5C(=O)[C@H](NC(C)=O)c5ccccc5)[nH]4)cc3)cc2)[nH]1 [cj-98, methyl ((1R,2S)-2-(((2S)-2-(5-(4′-(2-((2S)-1-((2R)-2-acetamido-2-phenylacetyl)-2-pyrrolidinyl)-1H-imidazol-5-yl)-4-biphenylyl)-1H-imidazol-2-yl)-1-pyrrolidinyl)carbonyl)cyclohexyl)carbamate]	0.001 to 0.999 nM
COC(=O)N[C@H](C(=O)N1CCC[C@H]1c1ncc(-c2ccc(-c3ccc(-c4nc([C@@H]5CCCN5C(=O)[C@@H](NC(=O)OC)C(C)C)[nH]c4CO)cc3)cc2)[nH]1)C(C)C [Example J14f, methyl ((1S)-1-(((2S)-2-(4-(hydroxymethyl)-5-(4′-(2-((2S)-1-((2S)-2-((methoxycarbonyl)amino)-3-methylbutanoyl)-2-pyrrolidinyl)-1H-imidazol-4-yl)-4-biphenylyl)-1H-imidazol-2-yl)-1-pyrrolidinyl)carbonyl)-2-methylpropyl)carbamate]	0.001 to 0.999 nM
CN(C)[C@@H](C(=O)N1CCC[C@H]1c1ncc(-c2ccc(-c3ccc(-c4cnc([C@@H]5CCCN5C(=O)c5cscn5)[nH]4)cc3)cc2)[nH]1)c1ccccc1 [Example 94-42, (1R)-N,N-dimethyl-2-oxo-1-phenyl-2-((2S)-2-(5-(4′-(2-((2S)-1-(1,3-thiazol-4-ylcarbonyl)-2-pyrrolidinyl)-1H-imidazol-5-yl)-4-biphenylyl)-1H-imidazol-2-yl)-1-pyrrolidinyl)ethanamine]	0.001 to 0.999 nM
COC(=O)N[C@@H](Cc1ccccc1)C(=O)N1CCC[C@H]1c1ncc(-c2ccc(-c3ccc(-c4cnc([C@@H]5CCCN5C(=O)[C@H](Cc5ccccc5)NC(=O)OC)[nH]4)cc3)cc2)[nH]1 [cj-148, methyl ((1S)-1-benzyl-2-((2S)-2-(5-(4′-(2-((2S)-1-((2S)-2-((methoxycarbonyl)amino)-3-phenylpropanoyl)-2-pyrrolidinyl)-1H-imidazol-5-yl)-4-biphenylyl)-1H-imidazol-2-yl)-1-pyrrolidinyl)-2-oxoethyl)carbamate]	1 to 99 nM
